Assay: nepafenac concentration in ocular tissues of rabbits following a single topical dose
Format: in vivo
Conditions: topical ocular administration of 0.3% nepafenac, simple formulation without penetration enhancers
Method: The estimated concentration within the anterior chamber following topical ocular administration of 0.3% nepafenac to rabbits is 24 μM (see FIGS. 1 and 2). This concentration, achieved using a simple formulation without penetration enhancers, is in excess of the parent compounds' COX I and COX II IC50s. This enhanced bioavailability provides a significant advantage and is unexpected over other non-steroidal anti-inflammatory drugs as well as amide derivatives of non-steroidal anti-inflammatory drugs. The compounds disclosed in the '034 patent, the contents of which are incorporated herein by reference, are ester and amide derivatives of 3-benzoylphenylacetic acid.

- estimated concentration within the anterior chamber: 24 µM
Structure (SMILES): NC(=O)Cc1cccc(C(=O)c2ccccc2)c1N [nepafenac, 2-Amino-3-benzoyl-phenylacetamide]

— patent US6646001B2, “Use of non-steroidal anti-inflammatory agents in combination with prostaglandin FP receptor agonists to treat glaucoma and ocular hypertension” (Alcon Manufacturing, Ltd., priority 1997, dated 2003)
